The text below walks through data of US20070010671A1, “Novel quinazoline derivatives and methods of treatment related to the use thereof” (priority 2003, published 2007).

In the assay the target is MCH receptor (Homo sapiens, UniProt Q99705). The assay can be described thus: High throughput functional screening FLIPR/FDSS6000: inhibition of MCH-evoked intracellular Ca2+ changes. It is filed as cell-based. Conditions: class by percent of control at 10^-7 M or IC50. The procedure, abridged: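 Cells expressing constitutively active MCH receptor, loaded with 4 μM Fluo4-AM for 1 h at 37 °C, were pretreated 3 min with compound, then challenged with MCH (50 nM for antagonist testing). MCH-evoked [Ca2+]i transients followed by FLIPR or FDSS (ex 488/em 530 nm) over 290 s.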

Structures are written as SMILES.

Take `Cc1cccc(C(C)(C)C)c1NC(=O)NC[C@H]1CC[C@@H](Nc2nc(N(C)C)c3ccccc3n2)CC1` [compound 515, N-(2-tert-butyl-6-methylphenyl)-N′-[(cis-4-{[4-(dimethylamino)quinazolin-2-yl]amino}cyclohexyl)methyl]urea]: the class was 1 (Class 1: The value of percent of control at 10^−7 M was less than 40% or the value of IC50 was less than 50 nM.).
The same measure for `CN(C)c1nc(N[C@H]2CC[C@@H](CNC(=O)Nc3ccccc3C(C)(C)C)CC2)nc2ccccc12` [compound 516, N-(2-tert-butylphenyl)-N′-[(cis-4-{[4-(dimethylamino)quinazolin-2-yl]amino}cyclohexyl)methyl]urea]: 1 (Class 1: The value of percent of control at 10^−7 M was less than 40% or the value of IC50 was less than 50 nM.); for `CSc1cccc(NC(=O)NC[C@H]2CC[C@@H](Nc3nc(N(C)C)c4ccccc4n3)CC2)c1` [compound 517, N-[(cis-4-{[4-(dimethylamino)quinazolin-2-yl]amino}cyclohexyl)methyl]-N′-[3-(methylthio)phenyl]urea]: 2 (Class 2: The value of percent of control at 10^−7 M was from 40% to 60% or the value of IC50 was from 50 nM to 200 nM.); for `CN(C)c1nc(N[C@H]2CC[C@@H](CNC(=O)Nc3cccc(SC(F)(F)F)c3)CC2)nc2ccccc12` [compound 518]: 3 (Class 3: The value of percent of control at 10^−7 M was more than 60% or the value of IC50 was more than 200 nM.).
In the case of `CN(C)c1nc(N[C@H]2CC[C@@H](CNC(=O)Nc3ccc4c(c3)OCO4)CC2)nc2ccccc12` [compound 519], the class is on record as 3 (Class 3: The value of percent of control at 10^−7 M was more than 60% or the value of IC50 was more than 200 nM.).
Regarding `COc1cc(NC(=O)NC[C@H]2CC[C@@H](Nc3nc(N(C)C)c4ccccc4n3)CC2)cc(OC)c1OC` [compound 520], the class was 3 (Class 3: The value of percent of control at 10^−7 M was more than 60% or the value of IC50 was more than 200 nM.).
The same measure for `CN(C)c1nc(N[C@H]2CC[C@@H](CNC(=O)NCc3ccc(Cl)c(Cl)c3)CC2)nc2ccccc12` [compound 521]: 3 (Class 3: The value of percent of control at 10^−7 M was more than 60% or the value of IC50 was more than 200 nM.).
The same measure for `CN(C)c1nc(N[C@H]2CC[C@@H](CNC(=O)Nc3ccc(F)c(F)c3)CC2)nc2ccccc12` [compound 522, N-(3,4-difluorophenyl)-N′-[(cis-4-{[4-(dimethylamino)quinazolin-2-yl]amino}cyclohexyl)methyl]urea]: 1 (Class 1: The value of percent of control at 10^−7 M was less than 40% or the value of IC50 was less than 50 nM.); for `COc1ccc(NC(=O)NC[C@H]2CC[C@@H](Nc3nc(N(C)C)c4ccccc4n3)CC2)cc1OC` [compound 523]: 3 (Class 3: The value of percent of control at 10^−7 M was more than 60% or the value of IC50 was more than 200 nM.).
Under `COc1cc(NC(=O)NC[C@H]2CC[C@@H](Nc3nc(N(C)C)c4ccccc4n3)CC2)cc(OC)c1` [compound 525] stands 2 (Class 2: The value of percent of control at 10^−7 M was from 40% to 60% or the value of IC50 was from 50 nM to 200 nM.); under `Cc1cc(C)cc(NC(=O)NC[C@H]2CC[C@@H](Nc3nc(N(C)C)c4ccccc4n3)CC2)c1` [compound 526], 3 (Class 3: The value of percent of control at 10^−7 M was more than 60% or the value of IC50 was more than 200 nM.); under `COC(=O)c1cccc(NC(=O)NC[C@H]2CC[C@@H](Nc3nc(N(C)C)c4ccccc4n3)CC2)c1` [compound 527], 3 (Class 3: The value of percent of control at 10^−7 M was more than 60% or the value of IC50 was more than 200 nM.).
Turning to `Cc1c(Cl)cccc1NC(=O)NC[C@H]1CC[C@@H](Nc2nc(N(C)C)c3ccccc3n2)CC1` [compound 528], the class is recorded as 1 (Class 1: The value of percent of control at 10^−7 M was less than 40% or the value of IC50 was less than 50 nM.).
Under `CN(C)c1nc(N[C@H]2CC[C@@H](CNC(=O)Nc3ccc(F)c(Cl)c3)CC2)nc2ccccc12` [compound 529] stands 1 (Class 1: The value of percent of control at 10^−7 M was less than 40% or the value of IC50 was less than 50 nM.).
With `COc1ccc(NC(=O)NC[C@H]2CC[C@@H](Nc3nc(N(C)C)c4ccccc4n3)CC2)cc1Cl` [compound 530], the class is 3 (Class 3: The value of percent of control at 10^−7 M was more than 60% or the value of IC50 was more than 200 nM.).
The same measure for `CCc1cccc(NC(=O)NC[C@H]2CC[C@@H](Nc3nc(N(C)C)c4ccccc4n3)CC2)c1` [compound 531, N-[(cis-4-{[4-(dimethylamino)quinazolin-2-yl]amino}cyclohexyl)methyl]-N′-(3-ethylphenyl)urea]: 2 (Class 2: The value of percent of control at 10^−7 M was from 40% to 60% or the value of IC50 was from 50 nM to 200 nM.); for `CN(C)c1nc(N[C@H]2CC[C@@H](CNC(=O)Nc3cc(F)cc(C(F)(F)F)c3)CC2)nc2ccccc12` [compound 532]: 2 (Class 2: The value of percent of control at 10^−7 M was from 40% to 60% or the value of IC50 was from 50 nM to 200 nM.); for `CN(C)c1nc(N[C@H]2CC[C@@H](CNC(=O)NCc3cccc(F)c3)CC2)nc2ccccc12` [compound 533, N-[(cis-4-{[4-(dimethylamino)quinazolin-2-yl]amino}cyclohexyl)methyl]-N′-(3-fluorobenzyl)urea]: 2 (Class 2: The value of percent of control at 10^−7 M was from 40% to 60% or the value of IC50 was from 50 nM to 200 nM.).
For `CN(C)c1nc(N[C@H]2CC[C@@H](CNC(=O)Nc3cccc(Oc4ccccc4)c3)CC2)nc2ccccc12` [compound 534], the class is 3 (Class 3: The value of percent of control at 10^−7 M was more than 60% or the value of IC50 was more than 200 nM.).
`CCCCOC(=O)c1ccc(NC(=O)NC[C@H]2CC[C@@H](Nc3nc(N(C)C)c4ccccc4n3)CC2)cc1` [compound 535]: the class is reported as 3 (Class 3: The value of percent of control at 10^−7 M was more than 60% or the value of IC50 was more than 200 nM.).
As for `CN(C)c1nc(N[C@H]2CC[C@@H](CNC(=O)Nc3ccc(C(F)(F)F)cc3)CC2)nc2ccccc12` [compound 536], the class is 3 (Class 3: The value of percent of control at 10^−7 M was more than 60% or the value of IC50 was more than 200 nM.).
On to `CN(C)c1nc(N[C@H]2CC[C@@H](CNC(=O)Nc3ccc(SC(F)(F)F)cc3)CC2)nc2ccccc12` [compound 537], for which the class is given as 3 (Class 3: The value of percent of control at 10^−7 M was more than 60% or the value of IC50 was more than 200 nM.).
The same measure for `Cc1cc(NC(=O)NC[C@H]2CC[C@@H](Nc3nc(N(C)C)c4ccccc4n3)CC2)c([N+](=O)[O-])cc1C` [compound 538]: 2 (Class 2: The value of percent of control at 10^−7 M was from 40% to 60% or the value of IC50 was from 50 nM to 200 nM.); for `CN(C)c1nc(N[C@H]2CC[C@@H](CNC(=O)Nc3ccc(OCc4ccccc4)cc3)CC2)nc2ccccc12` [compound 539]: 3 (Class 3: The value of percent of control at 10^−7 M was more than 60% or the value of IC50 was more than 200 nM.).
For `CN(C)c1nc(N[C@H]2CC[C@@H](CNC(=O)Nc3ccc(Cc4ccccc4)cc3)CC2)nc2ccccc12` [compound 540], the class is reported as 3 (Class 3: The value of percent of control at 10^−7 M was more than 60% or the value of IC50 was more than 200 nM.).
Under `CN(C)c1nc(N[C@H]2CC[C@@H](CNC(=O)Nc3ccc(Br)cc3C(F)(F)F)CC2)nc2ccccc12` [compound 541, N-[4-bromo-2-(trifluoromethyl)phenyl]-N′-[(cis-4-{[4-(dimethylamino)quinazolin-2-yl]amino}cyclohexyl)methyl]urea] stands 2 (Class 2: The value of percent of control at 10^−7 M was from 40% to 60% or the value of IC50 was from 50 nM to 200 nM.); under `CN(C)c1nc(N[C@H]2CC[C@@H](CNC(=O)Nc3c(F)cc(Br)cc3F)CC2)nc2ccccc12` [compound 542, N-(4-bromo-2,6-difluorophenyl)-N′-[(cis-4-{[4-(dimethylamino)quinazolin-2-yl]amino}cyclohexyl)methyl]urea], 1 (Class 1: The value of percent of control at 10^−7 M was less than 40% or the value of IC50 was less than 50 nM.); under `CN(C)c1nc(N[C@H]2CC[C@@H](CNC(=O)Nc3ccc(Br)cc3Cl)CC2)nc2ccccc12` [compound 543], 3 (Class 3: The value of percent of control at 10^−7 M was more than 60% or the value of IC50 was more than 200 nM.).
Turning to `CN(C)c1nc(N[C@H]2CC[C@@H](CNC(=O)NCc3ccc(Br)cc3)CC2)nc2ccccc12` [compound 544], the class is on record as 3 (Class 3: The value of percent of control at 10^−7 M was more than 60% or the value of IC50 was more than 200 nM.).
For the compound `CN(C)c1nc(N[C@H]2CC[C@@H](CNC(=O)Nc3ccc(Cl)cc3C(F)(F)F)CC2)nc2ccccc12` [compound 545, N-[4-chloro-2-(trifluoromethyl)phenyl]-N′-[(cis-4-{[4-(dimethylamino)quinazolin-2-yl]amino}cyclohexyl)methyl]urea], the class is reported as 1 (Class 1: The value of percent of control at 10^−7 M was less than 40% or the value of IC50 was less than 50 nM.).
The same measure for `Cc1cc(Cl)ccc1NC(=O)NC[C@H]1CC[C@@H](Nc2nc(N(C)C)c3ccccc3n2)CC1` [compound 546]: 2 (Class 2: The value of percent of control at 10^−7 M was from 40% to 60% or the value of IC50 was from 50 nM to 200 nM.); for `CN(C)c1nc(N[C@H]2CC[C@@H](CNC(=O)Nc3ccc(Cl)cc3[N+](=O)[O-])CC2)nc2ccccc12` [compound 547]: 3 (Class 3: The value of percent of control at 10^−7 M was more than 60% or the value of IC50 was more than 200 nM.); for `CN(C)c1nc(N[C@H]2CC[C@@H](CNC(=O)Nc3ccc(Cl)c(C(F)(F)F)c3)CC2)nc2ccccc12` [compound 548]: 3 (Class 3: The value of percent of control at 10^−7 M was more than 60% or the value of IC50 was more than 200 nM.).
